Where two headings read alike, the source gives them in different places.
System: ATF4 translation
Assay: ATF4 Nano Luciferase reporter integrated stress response (ISR) assay in H4 ATF4-NLuc cells
Assay type: cell-based, human
Conditions: H4 ATF4-NLuc (clone 17) cells, compound 30 minutes, then sodium arsenite for 6 additional hours, luminescence readout
Text: Cellular stress leads to activation of the integrated stress response pathway through one of four eukaryotic initiation factor 2a kinases and halts global translation, while allowing for the translation of select transcripts like ATF4 (activating transcription factor 4) that are important for the response to cellular stress. During normal conditions, small open reading frames (ORFs) in the 5′ UTR of ATF4 occupy the ribosome and prevent translation of the coding sequence of ATF4. During stress conditions however, the ribosome scans past these upstream ORFs and preferentially begins translation at the coding sequence of ATF4. In this way, the translation, and thus protein level of ATF4 is a readout of ISR pathway activation. Thus, a fusion of the uORFs and the beginning of the coding sequence of ATF to a common cellular reporter like nano-luciferase allows for a sensitive and high-throughput readout of ISR pathway activity.
Compounds as provided herein were tested in the following assay. The ATF4 Nano Luciferase reporter was constructed by fusing the human full length 5′ untranslated region (5′-UTR) and a small portion of the coding sequence of the ATF4 gene upstream of the Nano Luciferase (NLuc) coding sequence lacking it's start codon. Specifically, nucleotides +1 through +364 (relative to the transcriptional start site) of ATF4 transcript variant 2 (NCBI NM_182810.2) flanked 5′ by EcoRI and 3′ by BamHI restriction enzyme sites were synthesized and cloned into the EcoRI/BamHI cloning sites of pLVX-EF1a-IRES-Puro lentivirus vector (Clontech). Lentiviral particles were produced with Lenti-X single shots (VSV-G, Clontech) according to the manufacturer's instructions and used to transduce a human H4 neuroglioma cell line (ATCC HTB-148). H4 cells were selected with 1.25 μg/mL Puromycin, and clonal cell lines generated by limiting dilution. We utilized this cell line to generate an integrated stress response (ISR) assay to evaluate the activity of ISR pathway inhibitors via luminescence readout. The H4 ATF4-NLuc (clone 17) cell line is plated at a density of […] in 96-well or 384-well respectively in DMEM+[…]. 24-hours later test compounds diluted in dimethyl sulfoxide (DMSO) are added for 30 minutes at 37° C., followed by ISR pathway activation with […] sodium arsenite aqueous solution for 6 additional hours. Nano Glo luciferase reagent (N1150, Promega) is added according to manufacturer instructions and the luminescence signal (corresponding to the level of ATF4 translation and thus ISR pathway activation) is read with a standard plate reader with luminescence detection capabilities. […] In the tables below, activity of the tested compounds is provided, and in Table 3 as follows: […]; ++=IC50 1-10 μM; +=IC50>10 μM.

[1] = Homo sapiens, 0.5 h, read-out: Activity
[2] = Homo sapiens, 0.5 h, read-out: Biological Example 1 (ATF4 translation, IC50 nM)

| SMILES | IC50 [1] | IC50 [2] | IC50 (read-out: Activity) |
| --- | --- | --- | --- |
| O=C(COc1ccc(Cl)cc1)N[C@@H]1CC[C@@H](C(O)COC2CC(OC(F)(F)F)C2)OC1 (single isomer, unassigned) [Example 64] | – | – | < 1000 nM |
| O=C(COc1ccc(Cl)c(F)c1)N[C@@H]1CC[C@@H](c2nnc(C3C[C@H]3COC(F)(F)F)o2)OC1 (single isomer, unassigned) [Example 69] | < 1000 nM | – | – |
| O=C(COc1ccc(Cl)c(F)c1)N[C@@H]1CC[C@@H](c2nnc(C3C[C@H]3COC(F)(F)F)o2)OC1 (single isomer, unassigned) [Example 70] | – | 8 nM | < 1000 nM |
| CC(O)(COC1CC(OC(F)(F)F)C1)[C@@H]1CC[C@@H](NC(=O)COc2ccc(Cl)cc2)CO1 (single isomer, unassigned) [Example 71] | < 1000 nM | – | – |
| O=C(COc1ccc(Cl)cc1)N[C@@H]1CC[C@@H](c2nnc([C@H]3C[C@@H](OC(F)(F)F)C3)o2)OC1 [Example 2, 2-(4-chlorophenoxy)-N-[(3R,6S)-6-[5-[3-cis-(trifluoromethoxy)cyclobutyl]-1,3,4-oxadiazol-2-yl]tetrahydropyran-3-yl]acetamide] | < 1000 nM | 2.7 nM | – |
| O=C(COC1CC(OC(F)(F)F)C1)N[C@@H]1CC[C@@H](c2nnc([C@H]3C[C@@H](OC(F)(F)F)C3)o2)OC1 (stereo partly drawn) [Example 3, 2-[3-cis-(trifluoromethoxy)cyclobutoxy]-N-[(3R,6S)-6-[5-[(cis)-3-(trifluoromethoxy)cyclobutyl]-1,3,4-oxadiazol-2-yl]tetrahydropyran-3-yl]acetamide] | < 1000 nM | – | – |
| O=C(N[C@@H]1CC[C@@H](c2nnc([C@H]3C[C@@H](OC(F)(F)F)C3)o2)OC1)[C@H]1C[C@@H]1COC(F)(F)F [Example 4, (1R,2R)—N-[(3R,6S)-6-[5-[3-cis-(trifluoromethoxy)cyclobutyl]-1,3,4-oxadiazol-2-yl]tetrahydropyran-3-yl]-2-(trifluoromethoxymethyl)cyclopropanecarboxamide] | 1000 to 10000 nM | – | – |
| O=C(COC1CC(OC(F)(F)F)C1)NC12CCC(c3nnc([C@H]4C[C@@H](OC(F)(F)F)C4)o3)(CC1)OC2 (stereo partly drawn) [Example 14, 2-[3-cis-(trifluoromethoxy)cyclobutoxy]-N-[1-[5-[3-cis-(trifluoromethoxy)cyclobutyl]-1,3,4-oxadiazol-2-yl]-2-oxabicyclo[2.2.2]octan-4-yl]acetamide] | < 1000 nM | – | – |
| O=C(COC1CC(OC(F)(F)F)C1)N[C@@H]1CC[C@@H](c2cnn([C@H]3C[C@@H](OC(F)(F)F)C3)n2)OC1 (stereo partly drawn) [Example 17, 2-[3-cis-(trifluoromethoxy)cyclobutoxy]-N-[(3R,6S)-6-[2-[3-cis-(trifluoromethoxy)cyclobutyl]triazol-4-yl]tetrahydropyran-3-yl]acetamide] | < 1000 nM | – | – |
| O=C(COC1CC(OC(F)(F)F)C1)NC1CC[C@@H](c2cn([C@H]3C[C@@H](OC(F)(F)F)C3)nn2)OC1 (stereo partly drawn) [Example 18, 2-[3-cis-(trifluoromethoxy)cyclobutoxy]-N-[(3R,6S)-6-[1-[3-cis-(trifluoromethoxy)cyclobutyl]triazol-4-yl]tetrahydropyran-3-yl]acetamide] | < 1000 nM | – | – |
| O=C(COC1CC(OC(F)(F)F)C1)N[C@@H]1CC[C@@H](c2nnc(-c3ccc(Cl)c(F)c3)o2)OC1 (stereo partly drawn) [Example 19, N-[(3R,6S)-6-[5-(4-chloro-3-fluoro-phenyl)-1,3,4-oxadiazol-2-yl]tetrahydropyran-3-yl]-2-[3-cis-(trifluoromethoxy)cyclobutoxy]acetamide] | < 1000 nM | 29.5 nM | – |
| O=C(COc1ccc(Cl)c(F)c1)NC12CCC(c3nnc([C@H]4C[C@@H](OC(F)(F)F)C4)o3)(CC1)OC2 [Example 21, 2-(4-chloro-3-fluoro-phenoxy)-N-[1-[5-[3-cis-(trifluoromethoxy)cyclobutyl]-1,3,4-oxadiazol-2-yl]-2-oxabicyclo[2.2.2]octan-4-yl]acetamide] | < 1000 nM | 4 nM | – |
| O=C(COc1ccc(F)c(F)c1)NC12CCC(c3nnc([C@H]4C[C@@H](OC(F)(F)F)C4)o3)(CC1)OC2 [Example 25, 2-(3,4-difluorophenoxy)-N-[1-[5-[3-cis-(trifluoromethoxy)cyclobutyl]-1,3,4-oxadiazol-2-yl]-2-oxabicyclo[2.2.2]octan-4-yl]acetamide] | < 1000 nM | – | – |
| O=C(COc1ccc(Cl)cc1F)N[C@@H]1CC[C@@H](c2nnc([C@H]3C[C@@H](OC(F)(F)F)C3)o2)OC1 [Example 31, 2-(4-chloro-2-fluoro-phenoxy)-N-[(3R,6S)-6-[5-[3-cis-(trifluoromethoxy)cyclobutyl]-1,3,4-oxadiazol-2-yl]tetrahydropyran-3-yl]acetamide] | < 1000 nM | – | – |

The remaining lines, values ahead:

| IC50 [1] | IC50 [2] | IC50 (read-out: Activity) | SMILES |
| --- | --- | --- | --- |
| < 1000 nM | 3.9 nM | – | O=C(COc1ccc(Cl)cc1)N[C@@H]1CC[C@@H](C(O)COC2CC(OC(F)(F)F)C2)OC1 (single isomer, unassigned) [Example 63] |
| < 1000 nM | 8.5 nM | – | O=C(N[C@@H]1CC[C@@H](c2nnc(C3CC(OC(F)(F)F)C3)o2)OC1)[C@H]1CCc2cc(F)ccc2O1 (single isomer, unassigned) [Example 65] |
| – | – | < 1000 nM | CC(O)(COC1CC(OC(F)(F)F)C1)[C@@H]1CC[C@@H](NC(=O)COc2ccc(Cl)cc2)CO1 (single isomer, unassigned) [Example 72] |
| < 1000 nM | – | – | O=C(COc1ccc(Cl)c(F)c1)N[C@@H]1CC[C@@H](c2nnc([C@H]3C[C@@H](OC(F)(F)F)C3)o2)OC1 [Example 1, 2-(4-chloro-3-fluoro-phenoxy)-N-[(3R,6S)-6-[5-[3-cis-(trifluoromethoxy)cyclobutyl]-1,3,4-oxadiazol-2-yl]tetrahydropyran-3-yl]acetamide] |
| < 1000 nM | – | – | O=C(COc1ccc(F)cc1)N[C@@H]1CC[C@@H](c2nnc(C3CC(OC(F)(F)F)C3)o2)OC1 (stereo partly drawn) [Example 20, 2-(4-fluorophenoxy)-N-[(3R,6S)-6-[5-[3-cis-(trifluoromethoxy)cyclobutyl]-1,3,4-oxadiazol-2-yl]tetrahydropyran-3-yl]acetamide] |
| < 1000 nM | – | – | O=C(COc1ccc(F)cc1)NC12CCC(c3nnc([C@H]4C[C@@H](OC(F)(F)F)C4)o3)(CC1)OC2 [Example 22, 2-(4-fluorophenoxy)-N-[1-[5-[3-cis-(trifluoromethoxy)cyclobutyl]-1,3,4-oxadiazol-2-yl]-2-oxabicyclo[2.2.2]octan-4-yl]acetamide] |
| 1000 to 10000 nM | – | – | COC(=O)[C@@H]1CC[C@@H](NC(=O)COc2ccc(Cl)cc2)CO1 [Example 23, Methyl (2S,5R)-5-[[2-(4-chlorophenoxy)acetyl]amino]tetrahydropyran-2-carboxylate] |
| < 1000 nM | 10.5 nM | – | O=C(COc1ccc(F)c(F)c1)N[C@@H]1CC[C@@H](c2nnc([C@H]3C[C@@H](OC(F)(F)F)C3)o2)OC1 [Example 24, 2-(3,4-difluorophenoxy)-N-((3R,6S)-6-(5-(3-cis-(trifluoromethoxy)cyclobutyl)-1,3,4-oxadiazol-2-yl)tetrahydro-2H-pyran-3-yl)acetamide] |
| < 1000 nM | 2.2 nM | – | O=C(COc1ccc(Cl)cc1)NC12CCC(c3nnc([C@H]4C[C@@H](OC(F)(F)F)C4)o3)(CC1)OC2 [Example 26, 2-(4-chlorophenoxy)-N-[1-[5-[3-cis-(trifluoromethoxy)cyclobutyl]-1,3,4-oxadiazol-2-yl]-2-oxabicyclo[2.2.2]octan-4-yl]acetamide] |
| < 1000 nM | – | – | O=C(COc1ccccc1)N[C@@H]1CC[C@@H](c2nnc([C@H]3C[C@@H](OC(F)(F)F)C3)o2)OC1 [Example 27, 2-phenoxy-N-[(3R,6S)-6-[5-[3-cis-(trifluoromethoxy)cyclobutyl]-1,3,4-oxadiazol-2-yl]tetrahydropyran-3-yl]acetamide] |
| < 1000 nM | – | – | Cc1ccc(OCC(=O)N[C@@H]2CC[C@@H](c3nnc([C@H]4C[C@@H](OC(F)(F)F)C4)o3)OC2)cc1 [Example 28, 2-(4-methylphenoxy)-N-[(3R,6S)-6-[5-[3-cis-(trifluoromethoxy)cyclobutyl]-1,3,4-oxadiazol-2-yl]tetrahydropyran-3-yl]acetamide] |
| < 1000 nM | – | – | O=C(COc1ccc(Cl)c(F)c1)N[C@@H]1CC[C@@H](c2nnc(COC(F)(F)F)o2)OC1 [Example 30, 2-(4-chloro-3-fluorophenoxy)-N-((3R,6S)-6-(5-((trifluoromethoxy)methyl)-1,3,4-oxadiazol-2-yl)tetrahydro-2H-pyran-3-yl)acetamide] |

From US12139478B2, “Compounds, compositions and methods” (Denali Therapeutics Inc., priority 2017, dated 2024)
